The nature of data set [1]: Human liver microsomal stability assay. The class given is in vitro ADME. As to conditions: human, microsomes. The source says:
(§1) Further examples of useful assays include metabolic stability assays, such as but not limited to e.g., liver microsomal clearance assays which provide measurement such as, but not limited to e.g., liver microsomal clearance half-life (t1/2), liver microsomal intrinsic clearance (CLint), and the like. Such measurements are useful in assessing various characteristics of a subject compound, such as e.g., the availability of an intact compound to provide a pharmacological effect. A compound having a longer microsomal clearance half-life (t1/2), e.g., than a reference compound, will provide better exposure of the intact compound and greater availability to produce the relevant pharmacological effect. A compound having a less microsomal clearance, e.g., as measured by liver microsomal intrinsic clearance (CLint), will similarly result in greater exposure of the intact compound available for an increase in the relevant pharmacological effect, e.g., as compared to that of a reference compound with a higher liver microsomal intrinsic clearance (CLint). Other useful assays include in vitro hepatocyte metabolic stability assays.
(§2) Such assessments included human and mouse liver microsomal stability assays as well as 6-hour mouse PK studies.
(In general: Microsomes from liver hold many membrane-bound enzymes, among them those of drug oxidation.)

Data set [2] can be described thus: Mouse liver microsomal stability assay. The class given is in vitro ADME. The conditions noted are these: mouse, microsomes.
Description: as §1, §2

A short description of another data set: Mouse 6-hour PK study. The conditions noted are these: mouse, in vivo.
Description: Useful such assays include, but are not limited to e.g., those measurements made in PK studies, such as rodent and non-human primate PK studies, including e.g., mouse (such as mouse 6-hour PK studies), rat PK studies, cynomolgus or rhesus PK studies, or the like. Useful measurements obtained in such PK studies include but are not limited to e.g., maximum concentration (Cmax) reflecting the “peak” of a drug observed after its administration that can reflect not only the rate but also the extent of absorption, area under the curve (AUC) representing the area under the plot of tissue (e.g., plasma) concentration against time after drug administration which is of particular use in estimating bioavailability of drugs and drug total clearance, half-life (t1/2) or the period of time required for the concentration or amount of drug to be reduced to exactly one-half of a given concentration or amount that indicates the persistence of the drug in its volume of distribution, and the like.
as §2

Data set [3] in a line: Ligand facilitated Fe(III) efflux from liposomes. The class given is biochemical. Also on record: unit not given here. As to conditions: efflux rate k at 10 μM ligand concentration; ferrozine absorbance 562 nm, 120 min kinetic read. An outline of the steps:
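POPC/cholesterol liposomes loaded with Fe(III) citrate in MES/Tris pH 7.0, diluted to 1 mM phosphorus in ascorbate buffer with 1 mM ferrozine outside. Ligand at 1.25–40 µM; absorbance at 562 nm read every 60 s for 120 min. Efflux rate k fitted by single-phase association, averaged over triplicates, compared at 10 µM.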

Data set [4] relates to DMT1-deficient Caco-2 cells. The data set is described as follows: shDMT1-Caco2 55Fe transport assay. The class given is cell-based. The conditions noted are these: Caco-2. From the text:
Assay 2: shDMT1-Caco2 ^55Fe Transport Assay to Assess Ligand Ability in Transporting Fe (III)
Cells: DMT1-deficient Caco-2 cells (alias: “shDMT1,” or “4A” cells) were from Grillo et al. Science, 2017, and were cryopreserved in liquid nitrogen prior to use.
Reagents and supplies: ^55FeCl3 was obtained from PerkinElmer (Boston, MA). Iron(III) chloride (FeCl3) hexahydrate was obtained from Sigma. Dulbecco's Modified Eagle Medium (DMEM), fetal bovine serum (FBS), L-glutamine, MEM nonessential amino acids, penicillin-streptomycin, G418, formic acid, methanol, high-purity water, ammonium formate, dimethyl sulfoxide (DMSO) were purchased from Fisher Scientific. Propranolol, atenolol and carbutamide were obtained from Sigma-Aldrich Chemical Company (St Louis, MO). Scintillation cocktail was obtained from Research Product International Co. (Mount Prospect, IL). Stericup filter system (PES membrane, 0.22 um pore size) was purchased from Fisher Scientific. Corning item #3378 24-well transwell insert plates.
Test articles: known compounds hinokitiol and deferiprone were purchased from Sigma. They are tested side by side with the small molecule ligands disclosed in this application. DMSO stocks (10 mM, which is 1,000× of the 10 μM dose level) of hinokitiol or test articles were prepared. A stock solution of 25 mM deferiprone in DMSO was prepared. The DMSO stock solutions were stored at −20° C. or below when not in use.
The growth medium was prepared according to the following table
Apical media (serum free DMEM, 10 mM MES, pH 6.5) was prepared. Apical master mix media was prepared fresh with the addition of 200 nM ^55Fe before each experiment. For the negative control propranolol and atenolol wells, 200 nM of non-radioactive iron was used.
The basolateral media was serum-free DMEM, 10 mM HEPES, 2% bovine serum albumin (BSA), pH 7.4.
For each experiment, cells were seeded into the 24-well transwell plates (0.5 mL of 50,000 cells/mL) with growth media. The basolateral companion plate was loaded with 1 mL of growth media. After 12-24 hr, both the apical and basolateral chamber were replaced with growth media. The apical media was changed 3× per week for 21-28 days, including a media change exactly 48 hr before the assay date.
On the assay day, the TEER values were measured and the average TEER value was obtained. Individual wells with TEER value >35% lower than the average of all wells were excluded. For the qualified wells, the apical layer (twice) and basolaterial (once) chambers were washed with PBS. The basolateral companion plate was then filled with 1 mL of basolateral media. Via addition down the side-wall of the apical well, 300 μL per well of the apical assay master mix, with the indicated dose level of test article, was added. Each dose was tested in triplicate. The plates were incubated (5% CO2 and 90% humidity at 37° C.) for the indicated timepoints. At each indicated timepoint, the basolateral supernatant was gently mixed via pipetting, and 200 μL of the basolateral supernatant was transferred to scintillation vials. To each scintillation counting vial, 5 mL of scintillation cocktail fluid was added. For each scintillation vial, the radioactivity (CPM) was determined with liquid scintillation counter LS6500. The counting time per vial was 5 min.
All raw CPM values are divided by the average value of blank DMSO solution to give a fold of change above the DMSO value. The mean and standard deviation of each compound at each concentration level and at each time point measured was calculated to give the fold change (fc) value. For rank order compounds, the fc value of a ligand at 4 h time point is further divided by the fold change (fc) value of hinokitiol (a positive control compound) at an equimolar concentration to arrive at the FC (normalized fold of change) value. Data reported in Tables 1 and 2 is 4 hr time point FC=fc-ligand @ 3 uM/fc-hino @ 3 μM, and FC hino=1.
(In general: Passage across Caco-2 layers is used to estimate intestinal permeability.)

Experimental findings from US20230406803A1, “TROPOLONE DERIVATIVES AND TAUTOMERS THEREOF FOR IRON REGULATION IN ANIMALS” (Kinesid Therapeutics, Inc, priority 2020, published 2023) are described below.

Marks after values point to notes of the source that are not given here. Where only a bound is given, the exact number is not on record here.

The half-life is the time needed for the level to fall by half in the phase considered. In general, microsomal CLint refers to a measure of how fast metabolising enzymes remove a compound, apart from limits set by blood flow. Usually AUC(0-t) stands for exposure summed from dosing to a finite time, without extrapolation to infinity. In general, Cmax refers to the highest concentration seen after dosing. Regarding `CC(C)c1cccc(F)c(=O)c1O` [Ex. 4, 7-fluoro-2-hydroxy-3-isopropylcyclohepta-2,4,6-trien-1-one], in data set [1], the “clearance half-life (t1/2) and intrinsic clearance (CLint) as compared to hinokitiol” value (shortened to “clearance half-life … compared to hinokitiol”) is “longer clearance half-life (t1/2) and lower intrinsic clearance (CLint), or both as compared to hinokitiol”; the half-life fell in the range of 0.417 to 0.833 h; the microsomal CLint is over 50 µL/min/mg. Moreover, in data set [2], the “clearance half-life … compared to hinokitiol” value is “longer clearance half-life (t1/2) and lower intrinsic clearance (CLint), or both as compared to hinokitiol”; the half-life was 0.417 to 0.833 h; the microsomal CLint fell in the range of 25 to 50 µL/min/mg. Further, in “Mouse 6-hour PK study”, the area under the curve AUC(0-t) was over 20000 ng·h/mL, the Cmax fell in the range of 5000 to 20000 ng/mL, the half-life fell in the range of 1.25 to 4.99 h and the “mouse 6-hour PK properties as compared to hinokitiol” value is “one or more improved mouse 6-hour PK properties as compared to hinokitiol”.
Turning to `O=c1ccccc(OC2CCC2)c1O` [Ex. 56, 3-cyclobutoxy-2-hydroxycyclohepta-2,4,6-trien-1-one], in data set [1], the “clearance half-life … compared to hinokitiol” value is “longer clearance half-life (t1/2) and lower intrinsic clearance (CLint), or both as compared to hinokitiol”; the half-life lay within 1.67 to 2.5 h; the microsomal CLint was under 25 µL/min/mg. Moreover, in data set [2], the “clearance half-life … compared to hinokitiol” value is “longer clearance half-life (t1/2) and lower intrinsic clearance (CLint), or both as compared to hinokitiol”; the half-life fell in the range of 0.417 to 0.833 h; the intrinsic metabolic clearance (microsomal CLint) lay in the range of 25 to 50 µL/min/mg. Further, in the data set “Mouse 6-hour PK study”, the AUC(0-t) was 1500 to 5000 ng·h/mL, the Cmax was in the range of 1500 to 5000 ng/mL, the half-life is under 1.25 h and the “mouse 6-hour PK properties as compared to hinokitiol” value is given as “one or more improved mouse 6-hour PK properties as compared to hinokitiol”.
On to `O=c1ccccc([C@H]2CCCO2)c1O` (single isomer, unassigned) [Ex. 41], for which, in data set [1], the “clearance half-life … compared to hinokitiol” value is “longer clearance half-life (t1/2) and lower intrinsic clearance (CLint), or both as compared to hinokitiol”; the half-life lay within 0.417 to 0.833 h; the microsomal CLint was in the range of 25 to 50 µL/min/mg. For the same compound, in data set [2], the “clearance half-life … compared to hinokitiol” value was “longer clearance half-life (t1/2) and lower intrinsic clearance (CLint), or both as compared to hinokitiol”; the half-life was in the range of 0.417 to 0.833 h; the microsomal CLint lay within 25 to 50 µL/min/mg. Also, in the data set “Mouse 6-hour PK study”, the AUC(0-t) was 500 to 1500 ng·h/mL, the Cmax is 1500 to 5000 ng/mL, the half-life is under 1.25 h and the “mouse 6-hour PK properties as compared to hinokitiol” value is “one or more improved mouse 6-hour PK properties as compared to hinokitiol”.
For `O=c1c(F)cccc(C2CCOCC2)c1O` [Ex. 36, 7-fluoro-2-hydroxy-3-(tetrahydro-2H-pyran-4-yl)cyclohepta-2,4,6-trien-1-one], in data set [1], the “Human CLint” value was 0.00* μL/min/mg protein; the “Human t1/2” value is “∞*”; the “clearance half-life … compared to hinokitiol” value is “longer clearance half-life (t1/2) and lower intrinsic clearance (CLint), or both as compared to hinokitiol”. Moreover, in data set [2], the “clearance half-life … compared to hinokitiol” value is “longer clearance half-life (t1/2) and lower intrinsic clearance (CLint), or both as compared to hinokitiol”; the half-life is over 2.5 h; the intrinsic metabolic clearance (microsomal CLint) is under 25 µL/min/mg. For the same compound, in the data set “Mouse 6-hour PK study”, the AUC(0-t) was over 20000 ng·h/mL, the Cmax is over 20000 ng/mL, the half-life was 1.25 to 4.99 h and the “mouse 6-hour PK properties as compared to hinokitiol” value was “one or more improved mouse 6-hour PK properties as compared to hinokitiol”.
As to `CC(C)c1cccc(=O)c(O)c1F` [Ex. 2, 3-fluoro-2-hydroxy-4-isopropylcyclohepta-2,4,6-trien-1-one], in data set [1], the “clearance half-life … compared to hinokitiol” value is “longer clearance half-life (t1/2) and lower intrinsic clearance (CLint), or both as compared to hinokitiol”; the half-life was over 2.5 h; the microsomal CLint is under 25 µL/min/mg. Besides, in data set [2], the “clearance half-life … compared to hinokitiol” value is “longer clearance half-life (t1/2) and lower intrinsic clearance (CLint), or both as compared to hinokitiol”; the half-life was over 2.5 h; the microsomal CLint is under 25 µL/min/mg. Further, in “Mouse 6-hour PK study”, the AUC(0-t) was 5000 to 20000 ng·h/mL, the Cmax is 5000 to 20000 ng/mL, the half-life was in the range of 1.25 to 4.99 h and the “mouse 6-hour PK properties as compared to hinokitiol” value is “one or more improved mouse 6-hour PK properties as compared to hinokitiol”.
As for `O=c1ccc(OC2CC2)ccc1O`, in data set [3], the “Liposome Fe transport kefflux at 10 μM” value is 10-25. Moreover, the “Caco2 shDMT1 transport FC @ 3 μM, 4 h” value in data set [4] is on record as 0.5-1.
On the same counts, the results for `Cc1c(C2CC2)cccc(=O)c1[O-].[Na+]` are 0.1-5 and 0.5-1.
On to `CC(C)c1ccc(F)c(=O)c(O)c1` [drawing 176], for which the “Liposome Fe transport kefflux at 10 μM” value in data set [3] was 10-25. Besides, in data set [4], the “Caco2 shDMT1 transport FC @ 3 μM, 4 h” value was 0.01-0.5.
As to `O=c1ccccc(OC2COC2)c1O`, the “Liposome Fe transport kefflux at 10 μM” value in data set [3] was 0.1-5. Also, in data set [4], the “Caco2 shDMT1 transport FC @ 3 μM, 4 h” value is recorded as 0.01-0.5.
On the same counts, the results for `O=c1ccc(C2CC3CC3C2)ccc1O` (stereo not drawn) are 5-7.5 and 0.01-0.5.
On the same counts, the results for `CC(C)c1ccc(C(F)(F)F)c(=O)c(O)c1` are 5-7.5 and 0.01-0.5.
On the same counts, the results for `O=c1ccc(C2CCC2)ccc1O` are 10-25 and 0.01-0.5.
For the compound `O=c1cccc(OC2CC2)cc1O`, the “Liposome Fe transport kefflux at 10 μM” value in data set [3] was 5-7.5. In addition, the “Caco2 shDMT1 transport FC @ 3 μM, 4 h” value in data set [4] was 1-5.
